Reference: patent US9884832B2 (priority 2011, dated 2018)

biological target: AM2 S31 (wild-type serine at position 31 in the M2 protein), influenza virus A/Udorn/72 (Influenza A virus, UniProt P0DOF5); assay: cell-based; details: 100 uM; Xenopus oocytes; activity range class
Sequence (P0DOF5 whole entry, looked up): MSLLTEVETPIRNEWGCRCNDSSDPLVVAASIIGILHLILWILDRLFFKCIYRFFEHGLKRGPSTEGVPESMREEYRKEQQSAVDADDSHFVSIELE

For F[B-](F)(F)c1ccc(CNC23CC4CC(CC(C4)C2)C3)cc1.[K+] [Example 2a], the “S31 OOcyte Inhibition at 100 uM (%)” value was “A ((A)=31-95%)”.

same assay, conditions: 100 uM; Xenopus oocytes; activity range class; read-out: S31 OOcyte Inhibition at 100 uM (%)

c1coc(-c2nc(CNC34CC5CC(CC(C5)C3)C4)no2)c1 [Example 160a, N-((5-(furan-2-yl)-1,2,4-oxadiazol-3-yl)methyl)adamantan-1-amine] and c1csc(-c2nc(CNC34CC5CC(CC(C5)C3)C4)no2)c1 [Example 146a, N-((5-(thiophen-2-yl)-1,2,4-oxadiazol-3-yl)methyl)adamantan-1-amine] fall in the same range of inhibition at 100 µM: 0 to 30% for the first, 0 to 30% for the second.

Cc1c(CNC23CC4CC(CC(C4)C2)C3)sc2ccccc12 [Example 177a, Adamantan-1-yl-(3-methyl-benzo[b]thiophen-2-ylmethyl)-amine] and CSc1ccc(CNC23CC4CC(CC(C4)C2)C3)s1 [Example 90a] fall in the same range of inhibition at 100 µM: 31 to 95% for the first, 31 to 95% for the second.

FC(F)(F)c1ccc(CNC23CC4CC(CC(C4)C2)C3)cc1 [Example 5a, Adamantan-1-yl-(4-trifluoromethyl-benzyl)-amine] and FC(F)(F)Oc1ccc(CNC23CC4CC(CC(C4)C2)C3)cc1 [Example 4a, Adamantan-1-yl-(4-trifluoromethoxy-benzyl)-amine] fall in the same range of inhibition at 100 µM: 0 to 30% for the first, 0 to 30% for the second.

O=C1CCCN1c1ccc(CNC23CC4CC(CC(C4)C2)C3)cc1 [Example 45a, 1-(4-((adamantan-1-ylamino)methyl)phenyl)pyrrolidin-2-one] and CCSc1ccc(CNC23CC4CC(CC(C4)C2)C3)cc1 [Example 12a, N-(4-(ethylthio)benzyl)adamantan-1-amine] fall in the same range of inhibition at 100 µM: 0 to 30% for the first, 0 to 30% for the second.

Brc1cnc(CNC23CC4CC(CC(C4)C2)C3)[nH]1 [Example 89a, Adamantan-1-yl-(5-bromo-1H-imidazol-2-ylmethyl)-amine] and Brc1ccc(CNC23CC4CC(CC(C4)C2)C3)o1 [Example 87a, Adamantan-1-yl-(5-bromo-furan-2-ylmethyl)-amine] fall in the same range of inhibition at 100 µM: 31 to 95% for the first, 31 to 95% for the second.

c1csc(-c2nnc(CNC34CC5CC(CC(C5)C3)C4)o2)c1 [Example 147a, Adamantan-1-yl-(5-thiophen-2-yl-[1,3,4]oxadiazol-2-ylmethyl)-amine] and c1csc(C2=NOC(CNC34CC5CC(CC(C5)C3)C4)C2)c1 (stereo not shown) [Example 168a, N-((3-(thiophen-2-yl)-4,5-dihydroisoxazol-5-yl)methyl)adamantan-1-amine] fall in the same range of inhibition at 100 µM: 0 to 30% for the first, 0 to 30% for the second.

Clc1ccc(/C=C/CNC23CC4CC(CC(C4)C2)C3)cc1 [Example 200a, N-((E)-3-(4-chlorophenyl)allyl)adamantan-1-amine] and C(=C\c1ccccc1)/CNC12CC3CC(CC(C3)C1)C2 [Example 199a, N-cinnamyladamantan-1-amine] fall in the same range of inhibition at 100 µM: 0 to 30% for the first, 0 to 30% for the second.

CSc1ccc(-c2ccc(CNC34CC5CC(CC(C5)C3)C4)s2)cc1 [Example 112a, N-((5-(4-(methylthio)phenyl)thiophen-2-yl)methyl)adamantan-1-amine] and Fc1ccc(-c2cc(CNC34CC5CC(CC(C5)C3)C4)no2)cc1 [Example 118a, N-((5-(4-fluorophenyl)isoxazol-3-yl)methyl)adamantan-1-amine] fall in the same range of inhibition at 100 µM: 0 to 30% for the first, 0 to 30% for the second.

First: CCc1nc(CNC23CC4CC(CC(C4)C2)C3)no1 [Example 165a]
Second: c1cncc(-c2noc(CNC34CC5CC(CC(C5)C3)C4)n2)c1 [Example 135a, Adamantan-1-yl-(3-pyridin-3-yl-[1,2,4]oxadiazol-5-ylmethyl)-amine]
The inhibition at 100 µM of the first is higher: 31 to 95% for the first, 0 to 30% for the second.

First: c1cc(-c2csc(CNC34CC5CC(CC(C5)C3)C4)c2)cs1 [Example 152a, N-([3,3′-bithiophen]-5-ylmethyl)adamantan-1-amine]
Second: Oc1cc(Br)ccc1CNC12CC3CC(CC(C3)C1)C2 [Example 50a, 2-(((3s,5s,7s)-adamantan-1-ylamino)methyl)-5-bromophenol]
The inhibition at 100 µM of the first is lower: 0 to 30% for the first, 31 to 95% for the second.

Compared with CC(NC12CC3CC(CC(C3)C1)C2)c1ccc(I)s1 (stereo not shown) [Example 82a, N-(1-(5-iodothiophen-2-yl)ethyl)adamantan-1-amine], c1cc(-c2ccc(CNC34CC5CC(CC(C5)C3)C4)o2)[nH]n1 [Example 162a, N-((5-(1H-pyrazol-5-yl)furan-2-yl)methyl)adamantan-1-amine] is lower in inhibition at 100 µM: 31 to 95% for the first, 0 to 30% for the second.

c1c(CNC23CC4CC(CC(C4)C2)C3)noc1C1CC1 [Example 107a, N-((5-cyclopropylisoxazol-3-yl)methyl)adamantan-1-amine] was tested, and the inhibition at 100 µM was 0 to 30%.

same assay, conditions: Table 1; 100 uM; Xenopus oocytes, pH 5.5, -20 mV; read-out: S31 OOcyte Inhibition at 100 uM (%)

Compared with CC(C)(C)OC(=O)Nc1ccc(CNC23CC4CC(CC(C4)C2)C3)cc1 [Example 12, [4-(Adamantan-1-ylaminomethyl)-phenyl]carbamic acid tert-butyl ester], Nc1ccc(CNC23CC4CC(CC(C4)C2)C3)cc1 [Example 11, Adamantan-1-yl-(4-amino-benzyl)-amine] is higher in inhibition at 100 µM: 0 to 30% for the first, 31 to 95% for the second.

OCC(Cc1cnc[nH]1)NCC12CC3CC(CC(C3)C1)C2 (stereo not shown) [Example 2, 2-[(adamantan-1-ylmethyl)-amino]-3-(3H-imidazol-4-yl)-propan-1-ol] and c1ncc(CCNCC23CC4CC(CC(C4)C2)C3)[nH]1 [Example 1, Adamantan-1-ylmethyl-[2-(3H-imidazol-4-yl)-ethyl]-amine] fall in the same range of inhibition at 100 µM: 0 to 30% for the first, 0 to 30% for the second.

c1cn(-c2ccc(CNC34CC5CC(CC(C5)C3)C4)cc2)cn1 [Example 36, Adamantan-1-yl-(4-imidazol-1-yl-benzyl)-amine] and CCOc1ccc(CNC23CC4CC(CC(C4)C2)C3)cc1 [Example 20, Adamantan-1-yl-(4-ethoxy-benzyl)-amine] fall in the same range of inhibition at 100 µM: 0 to 30% for the first, 0 to 30% for the second.

COc1cc(CNC23CC4CC(CC(C4)C2)C3)ccc1O [Example 50, 4-(Adamantan-1-ylaminomethyl)-2-methoxy-phenol] and CC(=O)Oc1ccc(CNC23CC4CC(CC(C4)C2)C3)c(O)c1 [Example 60, Acetic acid 4-(adamantan-1-ylaminomethyl)-3-hydroxy-phenyl ester] fall in the same range of inhibition at 100 µM: 31 to 95% for the first, 31 to 95% for the second.

First: c1ccc2nc(CNC34CC5CC(CC(C5)C3)C4)ccc2c1 [Example 98, Adamantan-1-yl-quinolin-2-ylmethyl-amine]
Second: c1cc(-c2nnn[nH]2)ccc1CNC12CC3CC(CC(C3)C1)C2 [Example 15, Adamantan-1-yl-[4-(1H-tetrazol-5-yl)-benzyl]amine]
The inhibition at 100 µM of the first is higher: 31 to 95% for the first, 0 to 30% for the second.

c1cc2cc(CNC34CC5CC(CC(C5)C3)C4)[nH]c2s1 [Example 82, Adamantan-1-yl-(6H-thieno[2,3-b]pyrrol-5-ylmethyl)-amine] and Fc1ccc(CNC23CC4CC(CC(C4)C2)C3)c(F)c1 [Example 54, Adamantan-1-yl-(2,4-difluoro-benzyl)-amine] fall in the same range of inhibition at 100 µM: 31 to 95% for the first, 31 to 95% for the second.

Oc1ccc(CN2CCC3(CCCCC3)CC2)c(O)c1 [Example 115, 4-(3-Aza-spiro[5.5]undec-3-ylmethyl)-benzene-1,3-diol] and Oc1ccc(CNC23CC4CCC(CC(C4)C2)C3)c(O)c1 [Example 110, 4-(Tricyclo[4.3.1.13,8]undec-1-ylaminomethyl)-benzene-1,3-diol] fall in the same range of inhibition at 100 µM: 31 to 95% for the first, 31 to 95% for the second.

Oc1ccc(CNC23CC4CC(CC2C4)C3)c(O)c1 [Example 111, 4-[(Hexahydro-2,5-methano-pentalen-3a-ylamino)-methyl]-benzene-1,3-diol] and Oc1ccc(CNC2C3CC4CC(C3)CC2C4)c(O)c1 (stereo not shown) [Example 100, 4-(Adamantan-2-ylaminomethyl)-benzene-1,3-diol] fall in the same range of inhibition at 100 µM: 31 to 95% for the first, 31 to 95% for the second.

CC(=O)c1sccc1-c1ccc(CNC23CC4CC(CC(C4)C2)C3)cc1 [Example 43, 1-(3-(4-((Adamantan-1-ylamino)methyl)phenyl)thiophen-2-yl)ethanone] and Cc1nn2cc(CNC3C4CC5CC(C4)CC3C5)nc2s1 (stereo not shown) [Example 106, Adamantan-2-yl-(2-methyl-imidazo[2,1-b][1,3,4]thiadiazol-6-ylmethyl)-amine] fall in the same range of inhibition at 100 µM: 0 to 30% for the first, 0 to 30% for the second.

C[Si](C)(C)CCCNCc1ccc(O)cc1O [Example 113, 4-[(3-Trimethylsilanyl-propylamino)-methyl]-benzene-1,3-diol] gave an inhibition at 100 µM of 31 to 95%.

same assay, conditions: Table 3; 100 uM; Xenopus oocytes, pH 5.5, -20 mV; read-out: S31 OOcyte Inhibition at 100 uM (%)

COc1cccc(-c2cc(CNC34CC5CC(CC(C5)C3)C4)no2)c1 [Example 39b, N-((5-(3-methoxyphenyl)isoxazol-3-yl)methyl)adamantan-1-amine] and COc1ccc(-c2cc(CNC34CC5CC(CC(C5)C3)C4)no2)c(OC)c1 [Example 41b, N-((5-(2,4-dimethoxyphenyl)isoxazol-3-yl)methyl)adamantan-1-amine] fall in the same range of inhibition at 100 µM: 0 to 30% for the first, 0 to 30% for the second.

c1nc(N2CCCC2)ncc1CNC12CC3CC(CC(C3)C1)C2 [Example 54b, N-((2-(pyrrolidin-1-yl)pyrimidin-5-yl)methyl)adamantan-1-amine] and c1nc(C2CCCCC2)ncc1CNC12CC3CC(CC(C3)C1)C2 [Example 61b, N-((2-cyclohexylpyrimidin-5-yl)methyl)adamantan-1-amine] fall in the same range of inhibition at 100 µM: 0 to 30% for the first, 0 to 30% for the second.

First: Clc1ccc(CNC23CC4CC(CC(C4)C2)C3)nn1 [Example 70b, Adamantan-1-yl-(6-chloro-pyridazin-3-ylmethyl)-amine]
Second: CN(C)c1ncc(CNC23CC4CC(CC(C4)C2)C3)cn1 [Example 59b, N-((2-dimethylaminopyrimidin-5-yl)methyl)adamantan-1-amine]
The inhibition at 100 µM of the first is higher: 31 to 95% for the first, 0 to 30% for the second.

CSc1ccc(-c2cc(CNC34CC5CCC(CC(C5)C3)C4)no2)cc1 [Example 91b, (1S,3R,8S)—N-((5-(4-(methylthio)phenyl)isoxazol-3-yl)methyl)tricyclo[4.3.1.13,8]undecan-1-amine] and Oc1cc(-c2ccco2)ccc1CNC12CC3CC(CC(C3)C1)C2 [Example 7b, 2-((-Adamantan-1-ylamino)methyl)-5-(furan-2-yl)phenol] fall in the same range of inhibition at 100 µM: 0 to 30% for the first, 0 to 30% for the second.

With C(#Cc1cccs1)CNC12CC3CC(CC(C3)C1)C2 [Example 88b] the inhibition at 100 µM was 0 to 30%.
